For 18 compounds, EC50 results are on record in patent US20240228488A1 (TAKEDA PHARMACEUTICAL COMPANY LIMITED, priority 2021, published 2024).

One may read the EC50 as the midpoint of the concentration-response curve.

Chain of human activated kallikrein enzyme (P03952 391-638 limits assumed): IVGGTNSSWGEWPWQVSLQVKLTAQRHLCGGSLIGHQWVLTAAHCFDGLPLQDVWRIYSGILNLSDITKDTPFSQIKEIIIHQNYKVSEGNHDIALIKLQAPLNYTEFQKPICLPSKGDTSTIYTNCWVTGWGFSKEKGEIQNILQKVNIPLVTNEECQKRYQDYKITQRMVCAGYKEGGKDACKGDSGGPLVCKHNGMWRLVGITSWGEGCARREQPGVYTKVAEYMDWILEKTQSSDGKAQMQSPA
Chain of human activated kallikrein enzyme (P03952 20-390 partner limits assumed): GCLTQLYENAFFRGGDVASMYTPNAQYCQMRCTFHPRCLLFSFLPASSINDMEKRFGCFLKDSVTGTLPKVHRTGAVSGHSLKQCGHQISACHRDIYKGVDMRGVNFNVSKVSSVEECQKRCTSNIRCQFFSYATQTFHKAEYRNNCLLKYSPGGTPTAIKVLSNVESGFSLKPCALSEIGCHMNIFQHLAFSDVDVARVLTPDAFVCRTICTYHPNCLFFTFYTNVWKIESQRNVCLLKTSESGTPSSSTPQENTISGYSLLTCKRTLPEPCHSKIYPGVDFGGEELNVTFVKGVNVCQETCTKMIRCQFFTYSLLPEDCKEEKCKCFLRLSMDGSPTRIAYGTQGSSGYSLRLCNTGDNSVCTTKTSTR

The target in the assay is human activated kallikrein enzyme (Homo sapiens, UniProt P03952). The experiment in a line: Plasma kallikrein inhibition, fluorogenic PFR-AMC substrate, 500 pM activated kallikrein format. Type of assay: biochemical. The following applies: 500 pM activated kallikrein, 300 uM PFR-AMC, 30 min preincubation, 10 min reaction; read-out: Primary Dose Response Assay: Average EC50. A digest of the protocol:
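Enzyme at 500 pM preincubated 30 min RT with inhibitors in 20 mM Tris pH 7.5, 1 mM EDTA, 150 mM NaCl, 0.1% PEG-400, 0.1% Triton X-100. Reaction started with 300 uM PFR-AMC, run 10 min RT; fluorescence read at 460 nm emission, 380 nm excitation. EC50 reported in ranges.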
On to `O=C(Nc1cc(NCc2cn3cc(C4CC4)cc(N4CC(F)C4)c3n2)ncn1)[C@H]1C[C@@H]1c1cccc(Cl)c1` [Example I-145, (1S,2S)-2-(3-chlorophenyl)-N-(6-(((6-cyclopropyl-8-(3-fluoroazetidin-1-yl)imidazo[1,2-a]pyridin-2-yl)methyl)amino)pyrimidin-4-yl)cyclopropane-1-carboxamide], for which the concentration for a half-maximal effect (EC50) lay within 10 to 100 nM.

Turning to `COC(=O)c1cc(C2CC2)cn2cc(CNc3cc(NC(=O)[C@H]4C[C@@H]4c4cccc(Cl)c4)ncn3)nc12` [Example I-146, methyl 2-(((6-((1S,2S)-2-(3-chlorophenyl)cyclopropane-1-carboxamido)pyrimidin-4-yl)amino)methyl)-6-cyclopropylimidazo[1,2-a]pyridine-8-carboxylate], the EC50 lay in the range of 1 to 10 nM.

Turning to `O=C(Nc1cc(NCc2cn3cc(C4CC4)cc(OCc4ccccc4)c3n2)ncn1)[C@H]1C[C@@H]1c1cccc(Cl)c1` [Example I-148, (1S,2S)-N-(6-(((8-(benzyloxy)-6-cyclopropylimidazo[1,2-a]pyridin-2-yl)methyl)amino)pyrimidin-4-yl)-2-(3-chlorophenyl)cyclopropane-1-carboxamide], the EC50 fell in the range of 10 to 100 nM.

In the case of `O=C1CN(c2cc(C3CC3)cn3cc(CNc4cc(NC(=O)[C@H]5C[C@@H]5c5cccc(Cl)c5)ncn4)nc23)CCN1` [Example I-149, (1S,2S)-2-(3-chlorophenyl)-N-(6-(((6-cyclopropyl-8-(3-oxopiperazin-1-yl)imidazo[1,2-a]pyridin-2-yl)methyl)amino)pyrimidin-4-yl)cyclopropane-1-carboxamide], the EC50 is 1 to 10 nM.

For the compound `COc1ncccc1-c1cc(C2CC2)cn2cc(CNc3cc(NC(=O)[C@H]4C[C@@H]4c4cccc(Cl)c4)ncn3)nc12` [Example I-150, (1S,2S)-2-(3-chlorophenyl)-N-(6-(((6-cyclopropyl-8-(2-methoxypyridin-3-yl)imidazo[1,2-a]pyridin-2-yl)methyl)amino)pyrimidin-4-yl)cyclopropane-1-carboxamide], the concentration for a half-maximal effect (EC50) lay in the range of 10 to 100 nM.

Consider `O=C(Nc1cc(NCc2nc3ccc(C4CC4)cn3c2F)ncn1)[C@H]1C[C@@H]1c1cccc(Cl)c1` [Example I-152, (1S,2S)-2-(3-chlorophenyl)-N-(6-(((6-cyclopropyl-3-fluoroimidazo[1,2-a]pyridin-2-yl)methyl)amino)pyrimidin-4-yl)cyclopropane-1-carboxamide], for which the EC50 was in the range of 10 to 100 nM.

On to `O=C(Nc1cc(NCc2cn3cc(C4CC4)cc(N4CCOCC4)c3n2)ncn1)[C@H]1C[C@@H]1c1cccc(Cl)c1` [Example I-154, (1S,2S)-2-(3-chlorophenyl)-N-(6-(((6-cyclopropyl-8-morpholinoimidazo[1,2-a]pyridin-2-yl)methyl)amino)pyrimidin-4-yl)cyclopropane-1-carboxamide], for which the EC50 was 1 to 10 nM.

For the compound `CC(C)(C)OC(=O)Nc1cc(C2CC2)cn2cc(CNc3cc(NC(=O)[C@H]4C[C@@H]4c4cccc(Cl)c4)ncn3)nc12` [Example I-156, tert-butyl (2-(((6-((15,2S)-2-(3-chlorophenyl)cyclopropane-1-carboxamido)pyrimidin-4-yl)amino)methyl)-6-cyclopropylimidazo[1,2-a]pyridin-8-yl)carbamate], the half-maximal effective concentration (EC50) is 100 to 1000 nM.

For `O=C(Nc1cc(NCc2cn3cc(C4CC4)cc(N4CCCC4C(F)(F)F)c3n2)ncn1)[C@H]1C[C@@H]1c1cccc(Cl)c1` (stereo partly drawn) [Example I-158, (1S,2S)-2-(3-chlorophenyl)-N-(6-(((6-cyclopropyl-8-(2-(trifluoromethyl)pyrrolidin-1-yl)imidazo[1,2-a]pyridin-2-yl)methyl)amino)pyrimidin-4-yl)cyclopropane-1-carboxamide], the concentration for a half-maximal effect (EC50) lay in the range of 100 to 1000 nM.

`CC(C)c1ccc2nc(CNc3cc(NC(=O)[C@H]4C[C@@H]4c4cccc(Cl)c4)ncn3)cn2c1` [Example I-160, (1S,2S)-2-(3-chlorophenyl)-N-(6-(((6-isopropylimidazo[1,2-a]pyridin-2-yl)methyl)amino)pyrimidin-4-yl)cyclopropane-1-carboxamide]: the 50% effective concentration (EC50) fell in the range of 10 to 100 nM.

As to `CN1CC(=O)N(c2cc(C3CC3)cn3cc(CNc4cc(NC(=O)[C@H]5C[C@@H]5c5cccc(Cl)c5)ncn4)nc23)C1=O` [Example I-171, (1S,2S)-2-(3-chlorophenyl)-N-(6-(((6-cyclopropyl-8-(3-methyl-2,5-dioxoimidazolidin-1-yl)imidazo[1,2-a]pyridin-2-yl)methyl)amino)pyrimidin-4-yl)cyclopropane-1-carboxamide], the EC50 was in the range of 1 to 10 nM.

As for `O=C([C@H]1C[C@@H]1c1cccc(Cl)c1)N(O)c1cc(NCc2cn3cc(C4CC4)ccc3n2)ncn1` [Example I-175, (1S,2S)-2-(3-chlorophenyl)-N-(6-(((6-cyclopropylimidazo[1,2-a]pyridin-2-yl)methyl)amino)pyrimidin-4-yl)-N-hydroxycyclopropane-1-carboxamide], the EC50 was over 6000 nM.

For `O=C(Nc1cc(NCc2cn3cc(C4CC4)cc(N4CCN5CC(F)(F)CC5C4)c3n2)ncn1)[C@H]1C[C@@H]1c1cccc(Cl)c1` (stereo partly drawn) [Example I-197, (1S,2S)-2-(3-chlorophenyl)-N-(6-(((6-cyclopropyl-8-(7,7-difluorohexahydropyrrolo[1,2-a]pyrazin-2(1H)-yl)imidazo[1,2-a]pyridin-2-yl)methyl)amino)pyrimidin-4-yl)cyclopropane-1-carboxamide], the EC50 lay within 10 to 100 nM.

In the case of `O=C(Nc1cc(NCc2cn3cc(C4CC4)cc(N4CCN(C5CC5)CC4)c3n2)ncn1)[C@H]1C[C@@H]1c1cccc(Cl)c1` [Example I-201, (1S,2S)-2-(3-chlorophenyl)-N-(6-(((6-cyclopropyl-8-(4-cyclopropylpiperazin-1-yl)imidazo[1,2-a]pyridin-2-yl)methyl)amino)pyrimidin-4-yl)cyclopropane-1-carboxamide], the EC50 was 1 to 10 nM.

As for `O=C(Nc1cc(NCc2cn3cc(Cl)ccc3n2)ncn1)[C@H]1C[C@@H]1c1cccc(Cl)c1` [Example I-203, (1S,2S)-N-(6-(((6-chloroimidazo[1,2-a]pyridin-2-yl)methyl)amino)pyrimidin-4-yl)-2-(3-chlorophenyl)cyclopropane-1-carboxamide], the EC50 lay in the range of 10 to 100 nM.

`CN(C)c1ccc2nc(CNc3cc(NC(=O)[C@H]4C[C@@H]4c4cccc(Cl)c4)ncn3)cn2c1` [Example I-205, (1S,2S)-2-(3-chlorophenyl)-N-(6-(((6-(dimethylamino)imidazo[1,2-a]pyridin-2-yl)methyl)amino)pyrimidin-4-yl)cyclopropane-1-carboxamide]: the EC50 lay in the range of 10 to 100 nM.

Turning to `CC(C)(C)OC(=O)N1CC(c2cc(C3CC3)cn3cc(CNc4ccnc(NC(=O)[C@H]5C[C@@H]5c5cccc(Cl)c5)c4)nc23)C1` [Example I-226, tert-butyl 3-(2-(((2-((1S,2S)-2-(3-chlorophenyl)cyclopropane-1-carboxamido)pyridin-4-yl)amino)methyl)-6-cyclopropylimidazo[1,2-a]pyridin-8-yl)azetidine-1-carboxylate], the EC50 was in the range of 10 to 100 nM.

In the case of `O=C(Nc1cc(NCc2cn3cc(C4CC4)cc(N4CCN5CC(F)(F)CC5C4)c3n2)ccn1)[C@H]1C[C@@H]1c1cccc(Cl)c1` (stereo partly drawn) [Example I-230, (1S,2S)-2-(3-chlorophenyl)-N-(4-(((6-cyclopropyl-8-(7,7-difluorohexahydropyrrolo[1,2-a]pyrazin-2(1H)-yl)imidazo[1,2-a]pyridin-2-yl)methyl)amino)pyridin-2-yl)cyclopropane-1-carboxamide], the EC50 was 1 to 10 nM.
